Patent US20240327463A1, “ANTIBACTERIAL PRODUCTS” (priority 2017, published 2024)
In brackets after ≈: the same amount, converted by molar mass. Like-named read-outs stand apart in the source and are kept apart here.

Assays:
MRSA ATCC 33591 = system: MRSA ATCC 33591
Procedure: (§1) For MIC testing all peptides were dissolved in DMSO (according to the method of L. L. Ling, et al., Nature 2015, 517, 455-459). Bacteria were grown on Mueller Hinton broth (oxoid). All incubations were at 37° C. Dilutions were carried out using Mueller Hinton. 100 μl of autoclaved Mueller Hinton broth was added to wells 2-12 on a 96-well plate. 200 μl of the peptide was added to well one at a concentration of 512 μg/ml. 100 μl of peptide in well one was taken up and pipetted into well two. The mixture was then mixed via pipetting before 100 μl was taken up and pipetted into well three. This process was repeated up to well 11. […] This was repeated three times. The 96-well plates were then incubated for 24 hours. The MIC was determined to be the lowest concentration at which there was no growth visible.

MRSA DR 42412 (sputum) = assay: microbe, parasite or virus in culture
Procedure: as §1

VRE ATCC 29212 = assay: microbe, parasite or virus in culture
Procedure: as §1

M. smegmatis ATCC 607 = assay: microbe, parasite or virus in culture
Procedure: as §1

MRSA ATCC 700699 = assay: microbe, parasite or virus in culture
Procedure: as §1

VRE ATCC 700802 = assay: microbe, parasite or virus in culture
Procedure: as §1

MRSA DM21455 (eye) = assay: microbe, parasite or virus in culture
Procedure: as §1

[1] = system: Staphylococcus aureus ATCC 29213; assay: microbe, parasite or virus in culture
Procedure: as §1

[2] = Staphylococcus aureus ATCC 29213, Table 4B

## CC[C@H](C)[C@H](NC(=O)[C@@H](Cc1ccccc1)NC)C(=O)N[C@@H](CO)C(=O)N[C@H](CCC(N)=O)C(=O)N[C@@H](C(=O)N[C@H](C(=O)N[C@@H](CO)C(=O)N[C@H]1C(=O)N[C@@H](C)C(=O)N[C@@H](CCCNC(=N)N)C(=O)N[C@@H]([C@@H](C)CC)C(=O)O[C@H]1C)[C@@H](C)CC)[C@@H](C)CC [Compound 6, Arg10-teixobactin, reference compound]
MRSA ATCC 33591; MRSA ATCC 33591, Table 4A
  MIC (MRSA*): 2 µg/mL (≈ 1.61 µM)
MRSA DR 42412 (sputum); MRSA 2: MRSA DR 42412 (sputum), Table 4B
  MBC: 0.5 µg/mL (≈ 0.402 µM)
VRE ATCC 29212; VRE 2: VRE ATCC 29212, Table 4B
  MIC: 2 µg/mL (≈ 1.61 µM)
M. smegmatis ATCC 607; M. smegmatis ATCC 607, Table 4B
  MIC: 1 to 2 µg/mL
MRSA ATCC 700699; MRSA 1: MRSA ATCC 700699, Mueller Hinton Broth, Table 4B
  MIC: 1 µg/mL (≈ 0.804 µM)
MRSA ATCC 700699; MRSA 1: MRSA ATCC 700699, Table 4B
  MBC: 2 µg/mL (≈ 1.61 µM)
VRE ATCC 700802; VRE 1: VRE ATCC 700802, Table 4B
  MIC: 2 µg/mL (≈ 1.61 µM)
MRSA DM21455 (eye); MRSA 3: MRSA DM21455 (eye), clinical isolate, Table 4B
  MIC: 0.5 µg/mL (≈ 0.402 µM)
MRSA DM21455 (eye); MRSA 3: MRSA DM21455 (eye), Table 4B
  MBC: 1 µg/mL (≈ 0.804 µM)
[1]; [2]
  MBC: 1 µg/mL (≈ 0.804 µM)
  MIC: 0.25 µg/mL (≈ 0.201 µM)

## CC[C@@H](C)[C@@H](NC(=O)[C@@H](CCC(N)=O)NC(=O)[C@H](CO)NC(=O)[C@@H](NC(=O)[C@@H](Cc1ccccc1)NC)[C@@H](C)CC)C(=O)N[C@H](C(=O)N[C@@H](CO)C(=O)N[C@H]1C(=O)N[C@@H](C)C(=O)N[C@@H](C(C)C)C(=O)N[C@@H]([C@@H](C)CC)C(=O)O[C@H]1C)[C@@H](C)CC [Compound 17]
MRSA ATCC 33591; ATCC 33591
  MIC (MRSA*): 0.5 µg/mL (≈ 0.421 µM)
MRSA DR 42412 (sputum); DR 42412 (sputum)
  MBC: 4 µg/mL (≈ 3.37 µM)
  MIC: 0.5 µg/mL (≈ 0.421 µM)
VRE ATCC 29212; ATCC 29212
  MIC: 0.5 µg/mL (≈ 0.421 µM)
M. smegmatis ATCC 607; ATCC 607
  MIC: 1 µg/mL (≈ 0.842 µM)
MRSA ATCC 700699; ATCC 700699
  MBC: 4 µg/mL (≈ 3.37 µM)
  MIC: 1 µg/mL (≈ 0.842 µM)
VRE ATCC 700802; ATCC 700802
  MIC: 0.5 µg/mL (≈ 0.421 µM)
MRSA DM21455 (eye); DM21455 (eye)
  MBC: 2 µg/mL (≈ 1.68 µM)
  MIC: 0.25 µg/mL (≈ 0.211 µM)
[1]; ATCC 29213
  MBC: 1 µg/mL (≈ 0.842 µM)
  MIC: 0.25 µg/mL (≈ 0.211 µM)

## CC[C@@H](C)[C@@H](NC(=O)[C@@H](CCC(N)=O)NC(=O)[C@H](CO)NC(=O)[C@@H](NC(=O)[C@@H](Cc1ccccc1)NC)[C@@H](C)CC)C(=O)N[C@H](C(=O)N[C@@H](CO)C(=O)N[C@H]1C(=O)N[C@@H](C)C(=O)N[C@@H]([C@@H](C)CC)C(=O)N[C@@H]([C@@H](C)CC)C(=O)O[C@H]1C)[C@@H](C)CC [Compound 18, Ile10-teixobactin]
MRSA ATCC 33591; ATCC 33591
  MIC (MRSA*): 0.25 µg/mL (≈ 0.208 µM)
MRSA DR 42412 (sputum); DR 42412 (sputum)
  MBC: ≤0.0625 µg/mL
  MIC: ≤0.0625 µg/mL
VRE ATCC 29212; ATCC 29212
  MIC: ≤0.0625 µg/mL
M. smegmatis ATCC 607; ATCC 607
  MIC: 0.5 µg/mL (≈ 0.416 µM)
MRSA ATCC 700699; ATCC 700699
  MBC: 1 µg/mL (≈ 0.832 µM)
  MIC: 0.25 µg/mL (≈ 0.208 µM)
VRE ATCC 700802; ATCC 700802
  MIC: ≤0.0625 µg/mL
MRSA DM21455 (eye); DM21455 (eye)
  MBC: 0.125 µg/mL (≈ 0.104 µM)
  MIC: ≤0.0625 µg/mL
[1]; ATCC 29213
  MBC: 0.125 µg/mL (≈ 0.104 µM)
  MIC: ≤0.0625 µg/mL

## CC[C@@H](C)[C@@H](NC(=O)[C@@H](CCC(N)=O)NC(=O)[C@H](CO)NC(=O)[C@@H](NC(=O)[C@@H](Cc1ccccc1)NC)[C@@H](C)CC)C(=O)N[C@H](C(=O)N[C@@H](CO)C(=O)N[C@H]1C(=O)N[C@@H](C)C(=O)N[C@@H](CC(C)C)C(=O)N[C@@H]([C@@H](C)CC)C(=O)O[C@H]1C)[C@@H](C)CC [Compound 19, Leu10-teixobactin]
MRSA ATCC 33591; ATCC 33591
  MIC (MRSA*): 0.25 µg/mL (≈ 0.208 µM)
MRSA DR 42412 (sputum); DR 42412 (sputum)
  MBC: ≤0.0625 µg/mL
  MIC: ≤0.0625 µg/mL
VRE ATCC 29212; ATCC 29212
  MIC: 0.25 µg/mL (≈ 0.208 µM)
M. smegmatis ATCC 607; ATCC 607
  MIC: 1 µg/mL (≈ 0.832 µM)
MRSA ATCC 700699; ATCC 700699
  MBC: 2 µg/mL (≈ 1.66 µM)
  MIC: 0.25 µg/mL (≈ 0.208 µM)
VRE ATCC 700802; ATCC 700802
  MIC: 0.25 µg/mL (≈ 0.208 µM)
MRSA DM21455 (eye); DM21455 (eye)
  MBC: ≤0.0625 µg/mL
  MIC: ≤0.0625 µg/mL
[1]; ATCC 29213
  MBC: 0.125 µg/mL (≈ 0.104 µM)
  MIC: ≤0.0625 µg/mL
